Measured values from patent US12723063B2, “GIPR-agonist compounds” (Eli Lilly and Company, priority 2019, dated 2026).
pKi: −log10 of the molar value. *1 amine or outer side, *2 acyl side, *3 side chain or, on linkers, in order; H or OH if unused. Where a SMILES comes first, the peptide text is derived from it. Side-chain parts run from the residue outwards. [ ]: non-standard residue; d: D form. The star is where a group is joined. C20 diacid = O=C(O)CCCCCCCCCCCCCCCCCCC(=O)*; C18 diacid = O=C(O)CCCCCCCCCCCCCCCCC(=O)*; γGlu = O=C(O)[C@H](CCC(=O)[*:2])N[*:1]; 4Pal = N[C@@H](Cc1ccncc1)C(=O)O; αMeL = CC(C)C[C@](C)(N)C(=O)O; Iva = CC[C@](C)(N)C(=O)O; AEEA = NCCOCCOCC(=O)O; Aib = CC(C)(N)C(=O)O

Assays:
human GIPR = molecular target: T1, human GIPR (Homo sapiens, UniProt P48546); experiment: [125I]-GIP binding, SPA with WGA beads, 0.1% bacitracin; conditions: geometric mean, read-out: hGIPR Ki
T1 construct: expressed in transfected cells; crude membranes
T1 sequence (P48546 22-466): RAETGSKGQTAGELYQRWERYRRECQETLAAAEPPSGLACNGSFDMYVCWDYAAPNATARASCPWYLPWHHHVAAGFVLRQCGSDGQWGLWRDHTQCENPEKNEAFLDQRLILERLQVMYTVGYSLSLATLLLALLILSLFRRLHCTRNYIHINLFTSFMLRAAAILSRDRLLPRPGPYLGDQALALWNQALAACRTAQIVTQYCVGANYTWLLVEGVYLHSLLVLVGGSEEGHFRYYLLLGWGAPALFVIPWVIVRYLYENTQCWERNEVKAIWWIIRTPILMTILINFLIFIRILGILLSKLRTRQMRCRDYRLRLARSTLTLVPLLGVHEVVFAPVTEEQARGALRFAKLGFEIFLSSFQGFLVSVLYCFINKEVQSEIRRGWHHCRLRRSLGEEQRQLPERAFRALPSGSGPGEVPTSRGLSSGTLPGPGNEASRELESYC
Method in brief: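 Ki values are geometric means (SEM, n independent days), derived from four-parameter nonlinear regression of IC50. Membranes came from hGIPR-expressing CHO cells.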

[1] = molecular target: T2, human glucose-dependent insulinotropic peptide receptor (GIPR) (Homo sapiens, UniProt P48546); experiment: cAMP functional assay (HTRF) in HEK293 cells in presence of 0.1% casein; format: cell-based; conditions: HEK293 cells expressing human GIPR, geometric mean, read-out: hGIPR cAMP Rel EC50 nM (SEM, n)
T2 construct: expressed in transfected cells; host or cells: HEK293
T2 sequence (P48546 22-466): T1 sequence (P48546 22-466)

Compound	pKi (human GIPR)	EC50 [1]
CC[C@H](C)[C@H](NC(=O)[C@H](CCCCN)NC(=O)[C@H](CC(=O)O)NC(=O)[C@H](CC(C)C)NC(=O)[C@H](CC(C)C)NC(=O)[C@@H](NC(=O)[C@H](CO)NC(=O)[C@H](Cc1ccc(O)cc1)NC(=O)[C@H](CC(=O)O)NC(=O)[C@H](CO)NC(=O)[C@@H](NC(=O)[C@H](Cc1ccccc1)NC(=O)[C@@H](NC(=O)CNC(=O)[C@H](CCC(=O)O)NC(=O)[C@@H](C)NC(=O)[C@@H](N)Cc1ccc(O)cc1)[C@@H](C)O)[C@@H](C)CC)[C@@H](C)CC)C(=O)N[C@@H](C)C(=O)N[C@@H](CCC(N)=O)C(=O)NC(C)(C)C(=O)N[C@@H](CC(=O)O)C(=O)N[C@@H](Cc1ccccc1)C(=O)N[C@H](C(=O)N[C@@H](CC(N)=O)C(=O)N[C@@H](Cc1c[nH]c2ccccc12)C(=O)N[C@@H](CCCCNC(=O)COCCOCCNC(=O)COCCOCCNC(=O)CC[C@H](NC(=O)CCCCCCCCCCCCCCCCC(=O)O)C(=O)O)C(=O)N[C@@H](CC(C)C)C(=O)N[C@@H](C)C(=O)N[C@@H](CCC(N)=O)C(=O)NCC(=O)N1CCC[C@H]1C(=O)N[C@@H](CO)C(=O)N[C@@H](CO)C(=O)NCC(=O)N[C@@H](C)C(=O)N1CCC[C@H]1C(=O)N1CCC[C@H]1C(=O)N1CCC[C@H]1C(=O)N[C@@H](CO)C(N)=O)C(C)C [Example 93] (H-Y[dA]EGTFISDYSILLDKIAQ[Aib]DFVNWK([AEEA-AEEA-γGlu-C18 diacid])LAQGPSSGAPPPS-NH2)	10.37	0.00482 nM
CC[C@H](C)[C@H](NC(=O)[C@H](CO)NC(=O)[C@H](Cc1ccc(O)cc1)NC(=O)[C@H](CC(=O)O)NC(=O)[C@H](CO)NC(=O)[C@@H](NC(=O)[C@](C)(CC)NC(=O)[C@@H](NC(=O)CNC(=O)[C@H](CCC(=O)O)NC(=O)C(C)(C)NC(=O)[C@@H](N)Cc1ccc(O)cc1)[C@@H](C)O)[C@@H](C)CC)C(=O)N[C@@](C)(CC(C)C)C(=O)N[C@@H](CC(C)C)C(=O)N[C@@H](CC(=O)O)C(=O)N[C@@H](CCCCN)C(=O)N[C@@H](CCCCNC(=O)COCCOCCNC(=O)COCCOCCNC(=O)CC[C@H](NC(=O)CCCCCCCCCCCCCCCCCCC(=O)O)C(=O)O)C(=O)N[C@@H](Cc1c[nH]cn1)C(=O)N[C@@H](CCC(N)=O)C(=O)NC(C)(C)C(=O)N[C@@H](CC(=O)O)C(=O)N[C@@H](Cc1ccccc1)C(=O)N[C@H](C(=O)N[C@@H](CCC(=O)O)C(=O)N[C@@H](Cc1ccncc1)C(=O)N[C@@H](CC(C)C)C(=O)N[C@@H](CC(C)C)C(=O)N[C@@H](CCC(=O)O)C(=O)N[C@@H](C)C(=O)NCC(=O)N1CCC[C@H]1C(=O)N[C@@H](CO)C(=O)N[C@@H](CO)C(=O)NCC(=O)N[C@@H](C)C(=O)N1CCC[C@H]1C(=O)N1CCC[C@H]1C(=O)N1CCC[C@H]1C(=O)N[C@@H](CO)C(N)=O)C(C)C [Example 88] (H-Y[Aib]EGT[Iva]ISDYSI[αMeL]LDKK([AEEA-AEEA-γGlu-C20 diacid])HQ[Aib]DFVE[4Pal]LLEAGPSSGAPPPS-NH2)	10.08	0.0031 nM
CC[C@H](C)[C@H](NC(=O)[C@H](CO)NC(=O)[C@H](Cc1ccc(O)cc1)NC(=O)[C@H](CC(=O)O)NC(=O)[C@H](CO)NC(=O)[C@@H](NC(=O)[C@H](Cc1ccccc1)NC(=O)[C@@H](NC(=O)CNC(=O)[C@H](CCC(=O)O)NC(=O)[C@@H](C)NC(=O)[C@@H](N)Cc1ccc(O)cc1)[C@@H](C)O)[C@@H](C)CC)C(=O)N[C@@H](CC(C)C)C(=O)N[C@@H](CC(C)C)C(=O)N[C@@H](CC(=O)O)C(=O)N[C@@H](CCCCN)C(=O)N[C@@H](CCCCNC(=O)COCCOCCNC(=O)COCCOCCNC(=O)CC[C@H](NC(=O)CCCCCCCCCCCCCCCCCCC(=O)O)C(=O)O)C(=O)N[C@@H](C)C(=O)N[C@@H](CCC(N)=O)C(=O)NC(C)(C)C(=O)N[C@@H](CC(=O)O)C(=O)N[C@@H](Cc1ccccc1)C(=O)N[C@H](C(=O)N[C@@H](CC(N)=O)C(=O)N[C@@H](Cc1c[nH]c2ccccc12)C(=O)N[C@@H](CC(C)C)C(=O)N[C@@H](CC(C)C)C(=O)N[C@@H](C)C(=O)N[C@@H](CCC(N)=O)C(=O)NCC(=O)N1CCC[C@H]1C(=O)N[C@@H](CO)C(=O)N[C@@H](CO)C(=O)NCC(=O)N[C@@H](C)C(=O)N1CCC[C@H]1C(=O)N1CCC[C@H]1C(=O)N1CCC[C@H]1C(=O)N[C@@H](CO)C(N)=O)C(C)C [Example 1]	10.18	0.0476 nM
